# Laboratory results: patent US20240109903A1, “SUBSTITUTED HETEROCYCLES FOR TREATING CANCER” (Northwestern University, priority 2022, published 2024)
# Legend:
# Type in all cases: cell-based
# CCRF-CEM = test: NCI 60 five-dose screen CCRF-CEM; conditions: Homo sapiens; for CC50: read-out: LC50 (the source's name)
# HCT-15 = test: NCI 60 five-dose screen HCT-15; conditions: Homo sapiens; for CC50: read-out: LC50 (the source's name) (converted)
# HL-60(TB) = test: NCI 60 five-dose screen HL-60(TB); conditions: Homo sapiens; for CC50: read-out: LC50 (the source's name) (converted)
# MCF7 = test: NCI 60 five-dose screen MCF7; conditions: Homo sapiens; for CC50: read-out: LC50 (the source's name) (converted)
# OVCAR-8 = test: NCI 60 five-dose screen OVCAR-8; conditions: Homo sapiens; for CC50: read-out: LC50 (the source's name) (converted)
# SF-268 = test: NCI 60 five-dose screen SF-268; conditions: Homo sapiens; for CC50: read-out: LC50 (the source's name) (converted)
# SK-MEL-5 = test: NCI 60 five-dose screen SK-MEL-5; conditions: Homo sapiens; for CC50: read-out: LC50 (the source's name) (converted)
# A498 = test: NCI 60 five-dose screen A498; conditions: Homo sapiens; for CC50: read-out: LC50 (the source's name) (converted)
# RPMI-8226 = test: NCI 60 five-dose screen RPMI-8226; conditions: Homo sapiens; for CC50: read-out: LC50 (the source's name)
# OVCAR-4 = test: NCI 60 five-dose screen OVCAR-4; conditions: Homo sapiens; for CC50: read-out: LC50 (the source's name) (converted)
# OVCAR-3 = test: NCI 60 five-dose screen OVCAR-3; conditions: Homo sapiens; for CC50: read-out: LC50 (the source's name) (converted)
# HT29 = test: NCI 60 five-dose screen HT29; conditions: Homo sapiens; for GI50 / IC50 / IC (TGI): HT-29; for CC50: HT-29, read-out: LC50 (the source's name) (converted)
# NCI-H226 = test: NCI 60 five-dose screen NCI-H226; conditions: Homo sapiens; for CC50: read-out: LC50 (the source's name) (converted)
# SK-OV-3 = test: NCI 60 five-dose screen SK-OV-3; conditions: Homo sapiens; for CC50: read-out: LC50 (the source's name) (converted)
smiles,measurement,setting,value
Fc1ccc(N2CC(Cn3c(C(F)(F)F)cc4c(Cl)ncnc43)C2)c(F)c1 [NUCC-0226695],GI50,CCRF-CEM,10.5 µM
same,IC50,CCRF-CEM,41.7 µM
same,IC (TGI),CCRF-CEM,100 µM
same,CC50,CCRF-CEM,≥ 100 µM
same,GI50,HCT-15,1.78 µM
same,IC50,HCT-15,3.09 µM
same,IC (TGI),HCT-15,3.55 µM
same,CC50,HCT-15,7.08 µM
same,GI50,HL-60(TB),2.24 µM
same,IC50,HL-60(TB),3.89 µM
same,IC (TGI),HL-60(TB),6.31 µM
same,CC50,HL-60(TB),≥ 100 µM
same,GI50,MCF7,8.13 µM
same,IC50,MCF7,12.9 µM
same,IC (TGI),MCF7,23.4 µM
same,CC50,MCF7,60.3 µM
same,GI50,OVCAR-8,2.14 µM
same,IC50,OVCAR-8,3.47 µM
same,IC (TGI),OVCAR-8,5.01 µM
same,CC50,OVCAR-8,19.1 µM
same,GI50,SF-268,3.16 µM
same,IC50,SF-268,5.62 µM
same,IC (TGI),SF-268,11.2 µM
same,CC50,SF-268,47.9 µM
same,GI50,SK-MEL-5,11 µM
same,IC50,SK-MEL-5,18.2 µM
same,IC (TGI),SK-MEL-5,22.9 µM
same,CC50,SK-MEL-5,47.9 µM
same,GI50,A498,23.4 µM
same,IC50,A498,100 µM
same,IC (TGI),A498,74.1 µM
same,CC50,A498,≥ 100 µM
same,GI50,RPMI-8226,23.4 µM
same,IC50,RPMI-8226,37.2 µM
same,IC (TGI),RPMI-8226,64.6 µM
same,CC50,RPMI-8226,≥ 100 µM
same,GI50,OVCAR-4,12.9 µM
same,IC50,OVCAR-4,24.5 µM
same,IC (TGI),OVCAR-4,26.9 µM
same,CC50,OVCAR-4,56.2 µM
same,GI50,OVCAR-3,2.57 µM
same,IC50,OVCAR-3,4.9 µM
same,IC (TGI),OVCAR-3,6.46 µM
same,CC50,OVCAR-3,22.9 µM
same,GI50,HT29,3.47 µM
same,IC50,HT29,4.27 µM
same,IC (TGI),HT29,16.2 µM
same,CC50,HT29,97.7 µM
same,GI50,NCI-H226,14.1 µM
same,IC50,NCI-H226,33.9 µM
same,IC (TGI),NCI-H226,30.9 µM
same,CC50,NCI-H226,69.2 µM
same,GI50,SK-OV-3,14.5 µM
same,IC50,SK-OV-3,28.8 µM
same,IC (TGI),SK-OV-3,29.5 µM
same,CC50,SK-OV-3,60.3 µM
O=c1ccc(Cn2c(C(F)(F)F)cc3c(Cl)ncnc32)c[nH]1 [NUCC-0226698],GI50,CCRF-CEM,4.37 µM
same,IC50,CCRF-CEM,6.61 µM
same,IC (TGI),CCRF-CEM,100 µM
same,CC50,CCRF-CEM,≥ 100 µM
same,GI50,HCT-15,2.95 µM
same,IC50,HCT-15,3.8 µM
same,IC (TGI),HCT-15,14.8 µM
same,CC50,HCT-15,≥ 100 µM
same,GI50,HL-60(TB),2.09 µM
same,IC50,HL-60(TB),3.63 µM
same,IC (TGI),HL-60(TB),6.03 µM
same,CC50,HL-60(TB),≥ 100 µM
same,GI50,MCF7,20.9 µM
same,IC50,MCF7,32.4 µM
same,IC (TGI),MCF7,67.6 µM
same,CC50,MCF7,≥ 100 µM
same,GI50,OVCAR-8,3.55 µM
same,IC50,OVCAR-8,4.79 µM
same,IC (TGI),OVCAR-8,17.4 µM
same,CC50,OVCAR-8,≥ 100 µM
same,GI50,SF-268,10.7 µM
same,IC50,SF-268,20.9 µM
same,IC (TGI),SF-268,28.8 µM
same,CC50,SF-268,79.4 µM
same,GI50,SK-MEL-5,4.07 µM
same,IC50,SK-MEL-5,7.08 µM
same,IC (TGI),SK-MEL-5,15.1 µM
same,CC50,SK-MEL-5,38.9 µM
same,GI50,A498,≥ 100 µM
same,IC50,A498,100 µM
same,IC (TGI),A498,100 µM
same,CC50,A498,≥ 100 µM
same,GI50,RPMI-8226,22.9 µM
same,IC50,RPMI-8226,38 µM
same,IC (TGI),RPMI-8226,100 µM
same,CC50,RPMI-8226,≥ 100 µM
same,GI50,OVCAR-4,17.8 µM
same,IC50,OVCAR-4,36.3 µM
same,IC (TGI),OVCAR-4,44.7 µM
same,CC50,OVCAR-4,≥ 100 µM
same,GI50,OVCAR-3,14.8 µM
same,IC50,OVCAR-3,28.8 µM
same,IC (TGI),OVCAR-3,33.1 µM
same,CC50,OVCAR-3,72.4 µM
same,GI50,HT29,28.8 µM
same,IC50,HT29,38 µM
same,IC (TGI),HT29,100 µM
same,CC50,HT29,≥ 100 µM
same,GI50,NCI-H226,31.6 µM
same,IC50,NCI-H226,100 µM
same,IC (TGI),NCI-H226,100 µM
same,CC50,NCI-H226,≥ 100 µM
same,GI50,SK-OV-3,44.7 µM
same,IC50,SK-OV-3,100 µM
same,IC (TGI),SK-OV-3,100 µM
same,CC50,SK-OV-3,≥ 100 µM
